What was measured:
[1] = tested on: patients with gout and a history of major cardiovascular diseases; experiment: eGFR over time by average serum uric acid concentration, analysis of clinical trial data; format: in vivo, human; conditions: febuxostat group
Method: (§1) In order to evaluate non-inferiority of febuxostat to allopurinol related to cardiovascular risk, a clinical trial was designed and proceeded.
(§2) A multicenter, randomized, double-blind non-inferiority trial was performed. The details of the clinical trial design have been published previously. An independent data and safety monitoring committee with access to unblinded data monitored the clinical trial. The statistical analysis for the data and the safety monitoring committee was performed by an independent statistical group (WebbWrites).
(§3) The patients were regarded as having a history of major cardiovascular diseases, if they had myocardial infarction, hospitalization for unstable angina, stroke, hospitalization for transient ischemic attack, peripheral vascular disease, or diabetes mellitus symptoms. All participants provided a prior informed consent form.
(§4) The patients were randomly assigned so that they received febuxostat or allopurinol administered once a day in a double-blind manner. The randomization was stratified according to the estimated creatinine clearance at baseline (patient group having an estimated creatinine clearance ≥60 ml per minute vs patient group having an estimated creatinine clearance ≥30 and <60 ml per minute).
(§5) The dose of allopurinol was modified according to a kidney function. The patients with the estimated creatinine clearance 60 ml or more per minute i) initially received allopurinol at a dose of 300 mg once a day, and the dose was increased in 100 mg increments monthly until the patient had the serum uric acid concentration of less than 6.0 mg per deciliter or the dosage of allopurinol was 600 mg once a day. The patient having the estimated creatinine clearance of 30 ml or more and less than 60 ml per minute initially received 200 mg of allopurinol, and then the dose was increased in 100 mg increments until the patient either had the serum uric acid concentration of less than 6.0 mg per deciliter or was receiving the allopurinol dose of 400 mg once daily.
(§6) The dose of febuxostat was not modified according to the kidney function. The patients who were randomly assigned to receive febuxostat initially received 40 mg once a daily, and continued to receive the same dosage if the serum uric acid concentration was less than 6.0 mg per deciliter after 2 weeks of the treatment. If the serum uric acid concentration was higher than 6.0 mg per deciliter at 2nd week visit, the dose of febuxostat was increased to 80 mg once daily for the remainder of the trial.
(§7) During the period, the administration of a double-blind and double-dummy trial medications was guided by an interactive voice-response system which was a procedure to prevent unblinding for the patients whose dose was not adjusted. After completing dose adjustment, the urate level was concealed from the investigators, and the treatment was managed throughout the trial using the interactive voice-response system.
(§8) Outpatient visits were conducted according to the following schedule: during screening and randomization, and at 2, 4, 6, 8, 10, 12, and 24 weeks after the randomization, and every 6 months during the subsequent years of the trial. The patients with reduced kidney function or, the patients aged 65 years or older at randomization were visited at 9 and 15 months for monitoring the serum chemical profile. If the patient agreed to be monitored, but would not return for study visit, telephone contact was made, but such method was not preferred or recommended.
In order to confirm the effect of allopurinol and febuxostat on the kidney disease, the data obtained in the clinical trial described above was analyzed.

[2] = tested on: patients with gout and a history of major cardiovascular diseases; experiment: clinical trial febuxostat vs allopurinol: serum uric acid, gout flare, treatment discontinuation; format: in vivo, human
Method: as §1, §2, §3, §4, §5, §6, §7, §8

[3] = post-marketing study, Arthritis Research & Therapy volume 21, Article number: 229 (2019); cited from earlier work

## Cc1nc(-c2ccc(OCC(C)C)c(C#N)c2)sc1C(=O)O [febuxostat]
[1]; DBP <80, Average UA <6, Month 18
  eGFR Mean (95% CI): 63.11 (61.75-64.47) ml/min/1.73 m^2
[1]; DBP <80, Average UA <6, Month 24
  eGFR Mean (95% CI): 63.79 (62.31-65.27) ml/min/1.73 m^2
[1]; DBP <80, Average UA <6, Month 30
  eGFR Mean (95% CI): 63.51 (61.89-65.13) ml/min/1.73 m^2
[1]; DBP <80, Average UA <6, Month 36
  eGFR Mean (95% CI): 64.28 (62.56-66.00) ml/min/1.73 m^2
[1]; DBP <80, Average UA <6, Month 42
  eGFR Mean (95% CI): 64.43 (62.50-66.35) ml/min/1.73 m^2
[1]; DBP <80, Average UA <6, Month 48
  eGFR Mean (95% CI): 65.60 (63.48-67.72) ml/min/1.73 m^2
[1]; DBP <80, Average UA <6, Month 54
  eGFR Mean (95% CI): 65.70 (63.39-68.00) ml/min/1.73 m^2
[1]; DBP <80, Average UA <6, Month 60
  eGFR Mean (95% CI): 66.92 (64.25-69.59) ml/min/1.73 m^2
[1]; DBP <80, Average UA <6, Week 2
  eGFR Mean (95% CI): 62.06 (60.81-63.31) ml/min/1.73 m^2
[1]; DBP <80, Average UA ≥6, Baseline
  eGFR Mean (95% CI): 62.08 (59.70-64.45) ml/min/1.73 m^2
[1]; DBP <80, Average UA ≥6, Month 3
  eGFR Mean (95% CI): 61.44 (58.99-63.89) ml/min/1.73 m^2
[1]; DBP <80, Average UA ≥6, Month 6
  eGFR Mean (95% CI): 61.49 (59.02-63.95) ml/min/1.73 m^2
[1]; DBP <80, Average UA ≥6, Month 12
  eGFR Mean (95% CI): 60.74 (58.06-63.41) ml/min/1.73 m^2
[1]; DBP <80, Average UA ≥6, Month 18
  eGFR Mean (95% CI): 60.18 (57.20-63.15) ml/min/1.73 m^2
[1]; DBP <80, Average UA ≥6, Month 24
  eGFR Mean (95% CI): 60.32 (57.11-63.53) ml/min/1.73 m^2
[1]; DBP <80, Average UA ≥6, Month 30
  eGFR Mean (95% CI): 59.54 (55.89-63.19) ml/min/1.73 m^2
[1]; DBP <80, Average UA ≥6, Month 36
  eGFR Mean (95% CI): 60.26 (56.16-64.37) ml/min/1.73 m^2
[1]; DBP <80, Average UA ≥6, Month 42
  eGFR Mean (95% CI): 59.55 (55.09-64.02) ml/min/1.73 m^2
[1]; DBP <80, Average UA ≥6, Month 48
  eGFR Mean (95% CI): 59.84 (55.23-64.46) ml/min/1.73 m^2
[1]; DBP <80, Average UA ≥6, Month 54
  eGFR Mean (95% CI): 60.35 (55.08-65.62) ml/min/1.73 m^2
[1]; DBP <80, Average UA ≥6, Month 60
  eGFR Mean (95% CI): 60.01 (53.34-66.68) ml/min/1.73 m^2
[1]; DBP <80, Average UA ≥6, Week 2
  eGFR Mean (95% CI): 62.00 (59.39-64.62) ml/min/1.73 m^2
[1]; SBP <130, Average UA <6, Baseline
  eGFR Mean (95% CI): 64.76 (63.32-66.20) ml/min/1.73 m^2
[1]; SBP <130, Average UA <6, Month 3
  eGFR Mean (95% CI): 64.67 (63.21-66.12) ml/min/1.73 m^2
[1]; SBP <130, Average UA <6, Month 6
  eGFR Mean (95% CI): 64.87 (63.38-66.36) ml/min/1.73 m^2
[1]; SBP <130, Average UA <6, Month 12
  eGFR Mean (95% CI): 66.06 (64.55-67.57) ml/min/1.73 m^2
[1]; SBP <130, Average UA <6, Month 18
  eGFR Mean (95% CI): 66.18 (64.56-67.79) ml/min/1.73 m^2
[1]; SBP <130, Average UA <6, Month 24
  eGFR Mean (95% CI): 66.12 (64.42-67.83) ml/min/1.73 m^2
[1]; SBP <130, Average UA <6, Month 30
  eGFR Mean (95% CI): 66.59 (64.74-68.44) ml/min/1.73 m^2
[1]; SBP <130, Average UA <6, Month 36
  eGFR Mean (95% CI): 67.47 (65.55-69.39) ml/min/1.73 m^2
[1]; SBP <130, Average UA <6, Month 42
  eGFR Mean (95% CI): 66.93 (64.77-69.08) ml/min/1.73 m^2
[1]; SBP <130, Average UA <6, Month 48
  eGFR Mean (95% CI): 68.21 (65.88-70.54) ml/min/1.73 m^2
[1]; SBP <130, Average UA <6, Month 54
  eGFR Mean (95% CI): 68.62 (66.03-71.22) ml/min/1.73 m^2
[1]; SBP <130, Average UA <6, Month 60
  eGFR Mean (95% CI): 69.36 (66.42-72.30) ml/min/1.73 m^2
[1]; SBP <130, Average UA <6, Week 2
  eGFR Mean (95% CI): 65.16 (63.69-66.63) ml/min/1.73 m^2
[1]; SBP <130, Average UA ≥6, Baseline
  eGFR Mean (95% CI): 65.83 (63.23-68.44) ml/min/1.73 m^2
[1]; SBP <130, Average UA ≥6, Month 3
  eGFR Mean (95% CI): 65.54 (62.88-68.20) ml/min/1.73 m^2
[1]; SBP <130, Average UA ≥6, Month 6
  eGFR Mean (95% CI): 65.87 (63.30-68.43) ml/min/1.73 m^2
[1]; SBP <130, Average UA ≥6, Month 12
  eGFR Mean (95% CI): 65.19 (62.39-67.99) ml/min/1.73 m^2
[1]; SBP <130, Average UA ≥6, Month 18
  eGFR Mean (95% CI): 63.60 (60.49-66.71) ml/min/1.73 m^2
[1]; SBP <130, Average UA ≥6, Month 24
  eGFR Mean (95% CI): 62.90 (59.50-66.30) ml/min/1.73 m^2
[1]; SBP <130, Average UA ≥6, Month 30
  eGFR Mean (95% CI): 62.62 (58.76-66.48) ml/min/1.73 m^2
[1]; SBP <130, Average UA ≥6, Month 36
  eGFR Mean (95% CI): 65.24 (60.84-69.64) ml/min/1.73 m^2
[1]; SBP <130, Average UA ≥6, Month 42
  eGFR Mean (95% CI): 65.47 (60.56-70.39) ml/min/1.73 m^2
[1]; SBP <130, Average UA ≥6, Month 48
  eGFR Mean (95% CI): 64.82 (59.40-70.23) ml/min/1.73 m^2
[1]; SBP <130, Average UA ≥6, Month 54
  eGFR Mean (95% CI): 65.92 (59.74-72.11) ml/min/1.73 m^2
[1]; SBP <130, Average UA ≥6, Month 60
  eGFR Mean (95% CI): 64.71 (57.42-72.01) ml/min/1.73 m^2
[1]; SBP <130, Average UA ≥6, Week 2
  eGFR Mean (95% CI): 65.59 (62.82-68.36) ml/min/1.73 m^2
[2]; after 2nd week, at most times, febuxostat group vs allopurinol group
  proportion of patients with maintenance of serum uric acid concentration at less than 6.0 mg per deciliter: a higher proportion of the patients in the febuxostat group
[2]; at the 2nd week, febuxostat group vs allopurinol group
  proportion of patients with serum uric acid concentration of less than 6.0 mg per deciliter: higher in the febuxostat group than in the allopurinol group
[2]; entire trial, febuxostat group vs allopurinol group
  proportion of patients with serum uric acid concentration of less than 5.0 mg per deciliter: a larger proportion of the patients in the febuxostat group than in the allopurinol group
[2]; overall, during the trial
  rate of gout flare: 0.68 per patient-year
[3]
  acute renal failure reported more often: 5.7 times

— patent US20250152592A1, “PHARMACEUTICAL COMPOSITION COMPRISING ALLOPURINOL, FEBUXOSTAT OR PHARMACEUTICALLY ACCEPTABLE SALT THEREOF FOR PREVENTION OR TREATMENT OF CHRONIC KIDNEY DISEASE IN SUBJECT HAVING HIGH SERUM URIC ACID CONCENTRATION” (Indream Healthcare Inc., priority 2022, published 2025)
